# In US10954269B2, “Anti-inflammatory tripeptides” (Dr. August Wolff Gmbh & Co. KG Arzneimittel, priority 2013, dated 2021):
# How the values were obtained:
# primary human T-cells = experiment: Cytokine secretion on protein level in activated primary human T-cells (13-plex FACS / Luminex, supernatant); format: cell-based; details: for IL-1 cytokine concentration / IL-2 cytokine concentration / IL-4 cytokine concentration / IL-5 cytokine concentration / IL-6 cytokine concentration / IL-9 cytokine concentration / IL-10 cytokine concentration / IL-12p70 cytokine concentration / IL-13 cytokine concentration / IL-17 cytokine concentration / IL-22 cytokine concentration / TNF-α cytokine concentration / INF-α cytokine concentration: substance 10^−9M
# Procedure: (§1) Primary T-cells were isolated from peripheral blood from healthy volunteers and from secondary lymphatic organs from naïve C57BL/6 mice, respectively. The cells were stimulated with phorbol-12-myristate-13-acetate (PMA)/Ionomycin and interferon-gamma (IFN-γ), respectively, for 48 h to activate the cells. The activated cells release pro-inflammatory cytokines. In parallel a human (HaCaT) keratinocyte cell line was activated with PMA/Ionomycin and IFN-γ, respectively, too. […] At the same time release of anti-inflammatory IL-10 was inhibited. Two days after addition of PMA/Ionomycin and IFN-γ, respectively, the induction of IL-1 secretion was determined in the supernatant for proving that the cells are activated. […] The anti-inflammatory properties of the tripeptides were determined 48 h and 72 h following stimulation. A 13-plex-system based FACS analysis was used for showing the reduced secretion of pro-inflammatory cytokines in the supernatant. Data for IL-1, IL-2, IL-6, IL-12p70 IL-17, IFN-γ and TNF-α are considered to be most relevant. Thus, analysis of the anti-inflammatory properties of the tripeptides is preferably based on the results obtained for these analytes. […] Using this method the gene expression of pro-inflammatory markers like IL-6, IL-17, IFN-γ and TNF-α was determined.
# (§2) In a third experiment murine and human T cells and HaCaT cells were stimulated with PMA/Ionomycin and treated with Examples 14, 15, 16 and 17 at 10^−7 M, 10^−9 M and 10^−11 M. Cytokine concentrations (IFN-γ, IL-17 and IL-10 for T cells and IFN-γ for HaCat) were assessed in the supernatants using the Luminex technology. Expression of genes coding for Il-1β, IL-6 and TNF-α was determined. […] Moreover, concentrations of pro-inflammatory cytokines IFN-γ and IL-17 was reduced in the supernatants whereas the concentration of anti-inflammatory cytokine IL-10 was increased. […]
# (§3) For the biological assay two human cell lines of different origin were chosen to allow for translation of the results obtained. A HaCaT cell is a cell type belonging to an immortal human keratinocyte line used in scientific research. Its use in research allows for the characterization of human keratinocyte using a model that is reproducible and representing a human epithelial cell line. In contrast human T-lymphocytes (T-cells) are a type of lymphocyte (itself a type of white blood cell) that play a central role in cell-mediated inflammation/immunity.
# [1] = test system: human keratinocyte cell line (HaCaT); experiment: Cytokine secretion on protein level in activated human keratinocyte cell line HaCaT (13-plex FACS / Luminex, supernatant); format: cell-based; details: substance 10^−9M
# Procedure: as §1, §2, §3
# primary murine T-cells = experiment: Cytokine secretion on protein level in activated primary murine T-cells (13-plex FACS / Luminex, supernatant); format: cell-based, C57BL/6 mice; details: for IL-1 cytokine concentration / IL-2 cytokine concentration / IL-4 cytokine concentration / IL-5 cytokine concentration / IL-6 cytokine concentration / IL-10 cytokine concentration / IL-13 cytokine concentration / IL-17 cytokine concentration / IL-21 cytokine concentration / IL-22 cytokine concentration / IL-27 cytokine concentration / TNF-α cytokine concentration / IFN-γ cytokine concentration: substance 10^−9M
# Procedure: as §1
# In a third experiment murine and human T cells and HaCaT cells were stimulated with PMA/Ionomycin and treated with Examples 14, 15, 16 and 17 at 10^−7 M, 10^−9 M and 10^−11 M. Cytokine concentrations (IFN-γ, IL-17 and IL-10 for T cells and IFN-γ for HaCat) were assessed in the supernatants using the Luminex technology. Expression of genes coding for Il-1β, IL-6 and TNF-α was determined. […] Moreover, concentrations of pro-inflammatory cytokines IFN-γ and IL-17 was reduced in the supernatants whereas the concentration of anti-inflammatory cytokine IL-10 was increased.
# The anti-inflammatory and immunomodulatory effects of selected examples of the present invention were compared with common immunosuppressants. Thus, cells activated with PMA/Ionomycin and IFN-γ, respectively, were stimulated with MMF or dexamethasone. Following stimulation the secretion of pro-inflammatory cytokines was analyzed on protein and gene level (Table 9 and FIGS. 4-6).
# [2] = primary human T-cells stimulated with IFN-γ
# [3] = primary human T-cells stimulated with PBS
# [4] = primary human T-cells stimulated with PMA/Ionomycin
# [5] = HaCaT stimulated with PMA/Ionomycin
# [6] = primary murine T-cells stimulated with IFN-γ
# [7] = primary murine T-cells stimulated with PBS
# [8] = primary murine T-cells stimulated with PMA/Ionomycin
substance,measurement,setting,value
"N^α,N^α-dimethyl-(L)-Phe-(D)-Pro-N^α-methyl-(L)-Thr-OH [Example 7]",secretion / expression of pro-inflammatory cytokines (supernatant),primary human T-cells; activated primary human T-cells,immunomodulatory effects were seen
same,IL-1 cytokine concentration,primary human T-cells; [2],0 pg/mL
same,IL-2 cytokine concentration,primary human T-cells; [2],0 pg/mL
same,IL-4 cytokine concentration,primary human T-cells; [2],83.34 pg/mL
same,IL-5 cytokine concentration,primary human T-cells; [2],0 pg/mL
same,IL-6 cytokine concentration,primary human T-cells; [2],56.38 pg/mL
same,IL-9 cytokine concentration,primary human T-cells; [2],0 pg/mL
same,IL-10 cytokine concentration,primary human T-cells; [2],69.21 pg/mL
same,IL-12p70 cytokine concentration,primary human T-cells; [2],0 pg/mL
same,IL-13 cytokine concentration,primary human T-cells; [2],59.7 pg/mL
same,IL-17 cytokine concentration,primary human T-cells; [2],0 pg/mL
same,IL-22 cytokine concentration,primary human T-cells; [2],0 pg/mL
same,TNF-α cytokine concentration,primary human T-cells; [2],0 pg/mL
same,IL-1 cytokine concentration,primary human T-cells; [3],154.31 pg/mL
same,IL-2 cytokine concentration,primary human T-cells; [3],126.59 pg/mL
same,IL-4 cytokine concentration,primary human T-cells; [3],0 pg/mL
same,IL-5 cytokine concentration,primary human T-cells; [3],8.58 pg/mL
same,IL-6 cytokine concentration,primary human T-cells; [3],122.64 pg/mL
same,IL-9 cytokine concentration,primary human T-cells; [3],13.42 pg/mL
same,IL-10 cytokine concentration,primary human T-cells; [3],121.25 pg/mL
same,IL-12p70 cytokine concentration,primary human T-cells; [3],0 pg/mL
same,IL-13 cytokine concentration,primary human T-cells; [3],0 pg/mL
same,IL-17 cytokine concentration,primary human T-cells; [3],95.69 pg/mL
same,IL-22 cytokine concentration,primary human T-cells; [3],0 pg/mL
same,INF-α cytokine concentration,primary human T-cells; [3],69.17 pg/mL
same,TNF-α cytokine concentration,primary human T-cells; [3],51.46 pg/mL
same,IL-1 cytokine concentration,primary human T-cells; [4],508.96 pg/mL
same,IL-2 cytokine concentration,primary human T-cells; [4],1650.58 pg/mL
same,IL-4 cytokine concentration,primary human T-cells; [4],72.07 pg/mL
same,IL-5 cytokine concentration,primary human T-cells; [4],357.88 pg/mL
same,IL-6 cytokine concentration,primary human T-cells; [4],1100.07 pg/mL
same,IL-9 cytokine concentration,primary human T-cells; [4],263.36 pg/mL
same,IL-10 cytokine concentration,primary human T-cells; [4],842.93 pg/mL
same,IL-12p70 cytokine concentration,primary human T-cells; [4],0 pg/mL
same,IL-13 cytokine concentration,primary human T-cells; [4],991.61 pg/mL
same,IL-17 cytokine concentration,primary human T-cells; [4],2611.96 pg/mL
same,IL-22 cytokine concentration,primary human T-cells; [4],0 pg/mL
same,INF-α cytokine concentration,primary human T-cells; [4],6989.26 pg/mL
same,TNF-α cytokine concentration,primary human T-cells; [4],2062.57 pg/mL
same,IL-1 cytokine concentration,[1]; HaCaT stimulated with IFN-γ,109.65 pg/mL
same,IL-2 cytokine concentration,[1]; HaCaT stimulated with IFN-γ,267.78 pg/mL
same,IL-4 cytokine concentration,[1]; HaCaT stimulated with IFN-γ,0 pg/mL
same,IL-5 cytokine concentration,[1]; HaCaT stimulated with IFN-γ,0 pg/mL
same,IL-6 cytokine concentration,[1]; HaCaT stimulated with IFN-γ,470.44 pg/mL
same,IL-9 cytokine concentration,[1]; HaCaT stimulated with IFN-γ,14.88 pg/mL
same,IL-10 cytokine concentration,[1]; HaCaT stimulated with IFN-γ,0 pg/mL
same,IL-12p70 cytokine concentration,[1]; HaCaT stimulated with IFN-γ,0 pg/mL
same,IL-13 cytokine concentration,[1]; HaCaT stimulated with IFN-γ,1843.69 pg/mL
same,IL-17 cytokine concentration,[1]; HaCaT stimulated with IFN-γ,202.45 pg/mL
same,IL-22 cytokine concentration,[1]; HaCaT stimulated with IFN-γ,0 pg/mL
same,TNF-α cytokine concentration,[1]; HaCaT stimulated with IFN-γ,0 pg/mL
same,IFN-γ cytokine concentration,[1]; HaCaT stimulated with PBS,0 pg/mL
same,IL-1 cytokine concentration,[1]; HaCaT stimulated with PBS,181.03 pg/mL
same,IL-2 cytokine concentration,[1]; HaCaT stimulated with PBS,180.91 pg/mL
same,IL-4 cytokine concentration,[1]; HaCaT stimulated with PBS,0 pg/mL
same,IL-5 cytokine concentration,[1]; HaCaT stimulated with PBS,113.28 pg/mL
same,IL-6 cytokine concentration,[1]; HaCaT stimulated with PBS,119.59 pg/mL
same,IL-9 cytokine concentration,[1]; HaCaT stimulated with PBS,0 pg/mL
same,IL-10 cytokine concentration,[1]; HaCaT stimulated with PBS,0 pg/mL
same,IL-12p70 cytokine concentration,[1]; HaCaT stimulated with PBS,0 pg/mL
same,IL-13 cytokine concentration,[1]; HaCaT stimulated with PBS,1910.22 pg/mL
same,IL-17 cytokine concentration,[1]; HaCaT stimulated with PBS,0 pg/mL
same,IL-22 cytokine concentration,[1]; HaCaT stimulated with PBS,0 pg/mL
same,TNF-α cytokine concentration,[1]; HaCaT stimulated with PBS,21.66 pg/mL
same,IFN-γ cytokine concentration,[1]; [5],450.42 pg/mL
same,IL-1 cytokine concentration,[1]; [5],0 pg/mL
same,IL-2 cytokine concentration,[1]; [5],218.82 pg/mL
same,IL-4 cytokine concentration,[1]; [5],112.94 pg/mL
same,IL-5 cytokine concentration,[1]; [5],88.67 pg/mL
same,IL-6 cytokine concentration,[1]; [5],359.17 pg/mL
same,IL-9 cytokine concentration,[1]; [5],14.57 pg/mL
same,IL-10 cytokine concentration,[1]; [5],64.01 pg/mL
same,IL-12p70 cytokine concentration,[1]; [5],0 pg/mL
same,IL-13 cytokine concentration,[1]; [5],1877.03 pg/mL
same,IL-17 cytokine concentration,[1]; [5],209.12 pg/mL
same,IL-22 cytokine concentration,[1]; [5],0 pg/mL
same,TNF-α cytokine concentration,[1]; [5],0 pg/mL
same,secretion / expression of pro-inflammatory cytokines (supernatant),primary murine T-cells; activated primary murine T-cells,immunomodulatory effects were seen
same,IL-1 cytokine concentration,primary murine T-cells; [6],88.23 pg/mL
same,IL-2 cytokine concentration,primary murine T-cells; [6],98.22 pg/mL
same,IL-4 cytokine concentration,primary murine T-cells; [6],40.87 pg/mL
same,IL-5 cytokine concentration,primary murine T-cells; [6],265.4 pg/mL
same,IL-6 cytokine concentration,primary murine T-cells; [6],123.98 pg/mL
same,IL-10 cytokine concentration,primary murine T-cells; [6],1199.53 pg/mL
same,IL-13 cytokine concentration,primary murine T-cells; [6],0 pg/mL
same,IL-17 cytokine concentration,primary murine T-cells; [6],84.26 pg/mL
same,IL-21 cytokine concentration,primary murine T-cells; [6],0 pg/mL
same,IL-22 cytokine concentration,primary murine T-cells; [6],50.37 pg/mL
same,IL-27 cytokine concentration,primary murine T-cells; [6],0 pg/mL
same,TNF-α cytokine concentration,primary murine T-cells; [6],25.58 pg/mL
same,IFN-γ cytokine concentration,primary murine T-cells; [7],0 pg/mL
same,IL-1 cytokine concentration,primary murine T-cells; [7],62.38 pg/mL
same,IL-2 cytokine concentration,primary murine T-cells; [7],137.05 pg/mL
same,IL-4 cytokine concentration,primary murine T-cells; [7],60.56 pg/mL
same,IL-5 cytokine concentration,primary murine T-cells; [7],317.47 pg/mL
same,IL-6 cytokine concentration,primary murine T-cells; [7],129.26 pg/mL
same,IL-10 cytokine concentration,primary murine T-cells; [7],1283.71 pg/mL
same,IL-13 cytokine concentration,primary murine T-cells; [7],0 pg/mL
same,IL-17 cytokine concentration,primary murine T-cells; [7],0 pg/mL
same,IL-21 cytokine concentration,primary murine T-cells; [7],0 pg/mL
same,IL-22 cytokine concentration,primary murine T-cells; [7],15.86 pg/mL
same,IL-27 cytokine concentration,primary murine T-cells; [7],61.43 pg/mL
same,TNF-α cytokine concentration,primary murine T-cells; [7],53.67 pg/mL
same,IFN-γ cytokine concentration,primary murine T-cells; [8],1916.21 pg/mL
same,IL-1 cytokine concentration,primary murine T-cells; [8],154.26 pg/mL
same,IL-2 cytokine concentration,primary murine T-cells; [8],99.71 pg/mL
same,IL-4 cytokine concentration,primary murine T-cells; [8],99.12 pg/mL
same,IL-5 cytokine concentration,primary murine T-cells; [8],246.42 pg/mL
same,IL-6 cytokine concentration,primary murine T-cells; [8],184.98 pg/mL
same,IL-10 cytokine concentration,primary murine T-cells; [8],1233.22 pg/mL
same,IL-13 cytokine concentration,primary murine T-cells; [8],0 pg/mL
same,IL-17 cytokine concentration,primary murine T-cells; [8],67.92 pg/mL
same,IL-21 cytokine concentration,primary murine T-cells; [8],0 pg/mL
same,IL-22 cytokine concentration,primary murine T-cells; [8],71.09 pg/mL
same,IL-27 cytokine concentration,primary murine T-cells; [8],90.15 pg/mL
same,TNF-α cytokine concentration,primary murine T-cells; [8],40.87 pg/mL
